In patent publication US12227500B2, “Substituted pyrrolo[2,3-b]pyridines for suppressing toxic endoplasmic reticulum stress” (THE TRUSTEES OF COLUMBIA UNIVERSITY IN THE CITY OF NEW YORK, priority 2018, dated 2025):
pEC50: −log10 of the molar value. Read-outs that look alike come from different tables or passages of the source.

Tests used:
[1] = target: HGK/MAP4K4 (Homo sapiens, UniProt O95819); assay: Radiolabeled ATP kinase assay (Reaction Biology Corp.), HGK; format: biochemical; design: purchased Reaction Biology Corp; conditions: 10 μM ATP, read-out: % Enzyme Activity (relative to DMSO controls), HGK/MAP4K4, Data 1; for remaining activity at 0.025 µM: [Cmpd] 0.025 μM; for remaining activity at 0.1 µM: [Cmpd] 0.1 μM
Description: (§1) Meanwhile, the same analogs were analyzed in a radiolabeled ATP assay (10 μM ATP; Reaction Biology Corp.) to compare the extent to which they could inhibit the activity of HGK, MLK1, or MLK3 in a cell-free environment (Table S3 and S4).

[2] = system: human ES motor neurons carrying the ALS-causing SOD1^A4V mutation; assay: cells; format: cell-based; conditions: 72 h, 72 h; for pEC50 / viability at 1 µM / Emax: Homo sapiens, Neuron; for pEC50 / Emax / EC50: CPA 33 μM; for pEC50: read-out: EC50; for viability at 1 µM: CPA (33 μM) + compound (1 μM), read-out: Motor Neuron Survival, % untreated; for Emax: read-out: Emax (MN survival % untreated)
Description: Next, survival assays were performed with all the analogs at once to generate a low-variability dataset. All compounds were evaluated at concentrations ranging from 0.1-3.0 μM (five-point dilution) in three technical replicates and two biological replicates.

[3] = target: T1, MLK1/MAP3K9 (Homo sapiens, UniProt P80192); assay: Radiolabeled ATP kinase assay (Reaction Biology Corp.), MLK1; format: biochemical; conditions: [Cmpd] 0.1 μM, 10 μM ATP
T1 construct: purchased Reaction Biology Corp
Description: as §1

[4] = target: T2, MLK3/MAP3K11 (Homo sapiens, UniProt Q16584); assay: Radiolabeled ATP kinase assay (Reaction Biology Corp.), MLK3; format: biochemical; conditions: [Cmpd] 0.1 μM; 10 μM ATP
T2 construct: purchased Reaction Biology Corp
Description: as §1

[5] = read-out: % Enzyme Activity Remaining (relative to DMSO controls), MLK1/MAP3K9, Data 1
[6] = read-out: % Enzyme Activity Remaining (relative to DMSO controls), MLK1/MAP3K9, Data 2

T1 sequence (P80192 whole entry): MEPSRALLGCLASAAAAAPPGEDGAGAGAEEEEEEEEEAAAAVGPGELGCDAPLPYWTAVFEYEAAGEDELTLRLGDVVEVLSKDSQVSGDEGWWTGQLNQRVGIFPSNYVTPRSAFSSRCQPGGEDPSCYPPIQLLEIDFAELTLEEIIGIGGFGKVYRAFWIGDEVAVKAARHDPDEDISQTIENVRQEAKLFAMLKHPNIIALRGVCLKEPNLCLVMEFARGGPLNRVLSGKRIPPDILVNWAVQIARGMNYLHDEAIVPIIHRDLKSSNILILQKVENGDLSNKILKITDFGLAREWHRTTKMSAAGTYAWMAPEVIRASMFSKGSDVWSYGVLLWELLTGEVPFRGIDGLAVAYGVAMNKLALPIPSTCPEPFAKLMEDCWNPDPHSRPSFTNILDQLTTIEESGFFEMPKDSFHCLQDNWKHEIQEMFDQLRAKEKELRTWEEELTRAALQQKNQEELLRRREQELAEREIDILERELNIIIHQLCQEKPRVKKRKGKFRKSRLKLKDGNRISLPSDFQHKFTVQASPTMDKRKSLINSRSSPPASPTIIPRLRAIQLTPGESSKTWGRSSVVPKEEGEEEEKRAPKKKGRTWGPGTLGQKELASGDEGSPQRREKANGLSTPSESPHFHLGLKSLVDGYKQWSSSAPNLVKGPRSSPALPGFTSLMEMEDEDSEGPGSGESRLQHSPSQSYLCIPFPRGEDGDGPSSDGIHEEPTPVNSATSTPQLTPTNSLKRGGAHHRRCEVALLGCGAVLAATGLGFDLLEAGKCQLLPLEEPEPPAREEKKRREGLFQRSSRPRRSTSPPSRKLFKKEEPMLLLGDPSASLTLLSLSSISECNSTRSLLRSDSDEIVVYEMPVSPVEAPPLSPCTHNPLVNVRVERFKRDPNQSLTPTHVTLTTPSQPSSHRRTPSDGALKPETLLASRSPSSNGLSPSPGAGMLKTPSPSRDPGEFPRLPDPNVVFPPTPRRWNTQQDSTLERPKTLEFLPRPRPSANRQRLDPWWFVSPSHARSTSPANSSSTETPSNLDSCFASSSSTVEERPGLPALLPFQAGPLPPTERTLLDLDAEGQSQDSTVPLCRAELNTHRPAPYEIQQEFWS
T2 sequence (Q16584 whole entry): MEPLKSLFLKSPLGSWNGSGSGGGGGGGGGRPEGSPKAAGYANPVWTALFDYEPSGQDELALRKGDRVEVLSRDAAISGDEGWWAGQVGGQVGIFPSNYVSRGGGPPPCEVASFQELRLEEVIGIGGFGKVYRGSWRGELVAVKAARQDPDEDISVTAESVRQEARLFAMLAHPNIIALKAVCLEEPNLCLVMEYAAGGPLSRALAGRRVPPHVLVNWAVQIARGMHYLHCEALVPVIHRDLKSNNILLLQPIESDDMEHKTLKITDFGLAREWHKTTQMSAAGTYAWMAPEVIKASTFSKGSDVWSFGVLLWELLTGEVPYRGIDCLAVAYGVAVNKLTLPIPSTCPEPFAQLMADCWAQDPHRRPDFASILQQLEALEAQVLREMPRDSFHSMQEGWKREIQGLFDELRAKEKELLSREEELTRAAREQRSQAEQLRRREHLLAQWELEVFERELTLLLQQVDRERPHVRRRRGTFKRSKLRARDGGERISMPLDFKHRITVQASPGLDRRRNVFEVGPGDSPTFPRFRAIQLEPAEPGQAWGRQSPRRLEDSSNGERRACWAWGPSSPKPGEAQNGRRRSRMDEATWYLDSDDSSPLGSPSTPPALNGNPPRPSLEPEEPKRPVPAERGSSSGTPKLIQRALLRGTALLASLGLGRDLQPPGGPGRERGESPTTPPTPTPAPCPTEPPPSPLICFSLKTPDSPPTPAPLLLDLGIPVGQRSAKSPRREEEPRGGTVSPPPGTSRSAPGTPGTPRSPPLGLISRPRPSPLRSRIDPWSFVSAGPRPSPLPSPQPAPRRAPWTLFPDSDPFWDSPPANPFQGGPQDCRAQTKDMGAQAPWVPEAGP
Chain of HGK/MAP4K4 (O95819 whole entry): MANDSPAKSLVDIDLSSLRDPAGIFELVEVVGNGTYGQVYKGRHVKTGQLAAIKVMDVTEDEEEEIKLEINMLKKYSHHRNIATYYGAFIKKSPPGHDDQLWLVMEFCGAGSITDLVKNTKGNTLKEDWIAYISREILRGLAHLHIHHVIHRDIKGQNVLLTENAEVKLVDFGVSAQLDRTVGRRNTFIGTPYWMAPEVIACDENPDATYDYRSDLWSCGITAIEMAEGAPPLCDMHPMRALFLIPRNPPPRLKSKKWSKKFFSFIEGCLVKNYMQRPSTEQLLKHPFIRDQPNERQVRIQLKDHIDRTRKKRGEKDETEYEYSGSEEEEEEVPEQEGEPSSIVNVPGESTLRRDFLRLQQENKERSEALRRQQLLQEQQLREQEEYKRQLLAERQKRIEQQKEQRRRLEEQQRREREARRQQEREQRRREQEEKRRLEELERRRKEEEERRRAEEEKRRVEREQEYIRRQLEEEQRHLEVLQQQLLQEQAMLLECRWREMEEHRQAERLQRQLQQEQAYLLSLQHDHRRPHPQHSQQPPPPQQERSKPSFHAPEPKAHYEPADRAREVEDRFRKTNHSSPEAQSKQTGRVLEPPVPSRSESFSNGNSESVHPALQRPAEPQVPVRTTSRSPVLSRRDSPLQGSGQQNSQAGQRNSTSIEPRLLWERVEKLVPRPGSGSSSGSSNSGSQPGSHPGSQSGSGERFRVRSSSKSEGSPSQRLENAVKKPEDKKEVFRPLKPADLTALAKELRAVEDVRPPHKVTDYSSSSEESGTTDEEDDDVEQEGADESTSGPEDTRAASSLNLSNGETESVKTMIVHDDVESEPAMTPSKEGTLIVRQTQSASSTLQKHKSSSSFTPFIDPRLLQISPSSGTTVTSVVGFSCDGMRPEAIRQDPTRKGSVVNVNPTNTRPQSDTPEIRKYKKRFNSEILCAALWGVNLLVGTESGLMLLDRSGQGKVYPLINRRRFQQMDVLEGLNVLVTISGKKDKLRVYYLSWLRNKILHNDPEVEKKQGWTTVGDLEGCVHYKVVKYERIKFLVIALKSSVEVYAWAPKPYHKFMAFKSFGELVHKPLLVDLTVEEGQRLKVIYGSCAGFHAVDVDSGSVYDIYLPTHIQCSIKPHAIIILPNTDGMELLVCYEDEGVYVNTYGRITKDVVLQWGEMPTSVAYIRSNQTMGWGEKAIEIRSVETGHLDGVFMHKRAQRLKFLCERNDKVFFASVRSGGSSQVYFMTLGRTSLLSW

| SMILES | remaining activity at 0.025 µM [1] [%] | remaining activity at 0.1 µM [1] [%] | pEC50 [2] | viability at 1 µM [2] [%] | Emax [2] [%] | remaining activity at 0.1 µM [3, 5] [%] | remaining activity at 0.1 µM [3, 6] [%] | % Enzyme Activity Remaining (relative to DMSO controls), MLK3/MAP3K11, Data 1 [4] [%] | % Enzyme Activity Remaining (relative to DMSO controls), MLK3/MAP3K11, Data 2 [4] [%] | EC50 [2] |
| --- | --- | --- | --- | --- | --- | --- | --- | --- | --- | --- |
| CN1CCN(Cc2ccc(-c3cnc4[nH]cc(-c5ccc(NC(=O)NC6CCCCC6)cc5)c4c3)cc2)CC1 [Compound 7aw, 1-Cyclohexyl-3-(4-(5-(4-((4-methylpiperazin-1-yl)methyl)phenyl)-1H-pyrrolo[2,3-b]pyridin-3-yl)phenyl)urea] | 85.4 | 58.5 | 6.39 | 27.5 | 27.5 | 79.8 | 79.4 | 65.23 | 66.67 |  |
| C[C@@H](NC(=O)Nc1cccc(-c2c[nH]c3ncc(-c4ccc(CN5CCN(C)CC5)cc4)cc23)c1)c1ccccc1 [Compound 7ax, (R)-1-(3-(5-(4-((4-methylpiperazin-1-yl)methyl)phenyl)-1H-pyrrolo[2,3-b]pyridin-3-yl)phenyl)-3-(1-phenylethyl)urea] | 93.6 | 78.7 | 5.84 | 17.4 | 35.5 | 93.5 | 92.3 | 90.99 | 86.58 |  |
| CN1CCN(Cc2ccc(-c3cnc4[nH]cc(-c5cccc(NC(=O)NCc6ccco6)c5)c4c3)cc2)CC1 [Compound 7ay, 1-(Furan-2-ylmethyl)-3-(3-(5-(4-((4-methylpiperazin-1-yl)methyl)phenyl)-1H-pyrrolo[2,3-b]pyridin-3-yl)phenyl)urea] | 93.8 | 79 | 7.04 | 4.58 | 9.29 | 88.5 | 91.8 | 84.43 | 83.57 |  |
| COCCNC(=O)Nc1cccc(-c2c[nH]c3ncc(-c4ccc(CN5CCN(C)CC5)cc4)cc23)c1 [Compound 7az, 1-(2-Methoxyethyl)-3-(3-(5-(4-((4-methylpiperazin-1-yl)methyl)phenyl)-1H-pyrrolo[2,3-b]pyridin-3-yl)phenyl)urea] | 87.1 | 65 | 5.52 | 22.9 | 51.5 | 79 | 78.5 | 79.28 | 80.78 |  |
| CCOc1ccc(-c2c[nH]c3ncc(-c4ccc(CN5CCN(C)CC5)cc4)cc23)cn1 [Compound 7b, 3-(6-Ethoxypyridin-3-yl)-5-(4-((4-methylpiperazin-1-yl)methyl)phenyl)-1H-pyrrolo[2,3-b]pyridine] | 77.6 | 42.8 | 6.30 | 52.3 | 52.3 | 89.2 | 87.8 | 86.71 | 86.95 |  |
| CN1CCN(Cc2ccc(-c3cnc4[nH]cc(-c5cccc6c5oc5ccccc56)c4c3)cc2)CC1 [Compound 7c, 3-(Dibenzo[b,d]furan-4-yl)-5-(4-((4-methylpiperazin-1-yl)methyl)phenyl)-1H-pyrrolo[2,3-b]pyridine] | 99.3 | 81.6 |  | 7.84 | 10.4 | 88.3 | 86.8 | 90.01 | 93.44 | Ambiguous |
| CN1CCN(Cc2ccc(-c3cnc4[nH]cc(-c5ccc(N)cc5)c4c3)cc2)CC1 [Compound 7e, 4-(5-(4-((4-Methylpiperazin-1-yl)methyl)phenyl)-1H-pyrrolo[2,3-b]pyridin-3-yl)aniline] | 24 | 7.41 | 6.64 | 96.1 | 111 | 51.7 | 54 | 51.43 | 54.29 |  |
| CN1CCN(Cc2ccc(-c3cnc4[nH]cc(-c5csc6ccccc56)c4c3)cc2)CC1 [Compound 7f, 3-(Benzo[b]thiophen-3-yl)-5-(4-((4-methylpiperazin-1-yl)methyl)phenyl)-1H-pyrrolo[2,3-b]pyridine] | 23.2 | 4.89 | 6.47 | 68.3 | 68.3 | 81.1 | 76.5 | 68.84 | 73.51 |  |
| CN1CCN(Cc2ccc(-c3cnc4[nH]cc(-c5cccc(N)c5)c4c3)cc2)CC1 [Compound 7h, 3-(5-(4-((4-Methylpiperazin-1-yl)methyl)phenyl)-1H-pyrrolo[2,3-b]pyridin-3-yl)aniline] | 98.8 | 87.4 | 6.75 | 106 | 115 | 48.8 | 43.2 | 62.91 | 63.31 |  |
| CN1CCN(Cc2ccc(-c3cnc4[nH]cc(-c5ccc(F)c(C(=O)O)c5)c4c3)cc2)CC1 [Compound 7i, 2-Fluoro-5-(5-(4-((4-methylpiperazin-1-yl)methyl)phenyl)-1H-pyrrolo[2,3-b]pyridin-3-yl)benzoic acid] | 85.3 | 54.6 |  | 7.82 | 13.3 | 80.2 | 79.4 | 57.91 | 50.75 | Ambiguous |
| CN1CCN(Cc2ccc(-c3cnc4[nH]cc(-c5cnc(N)nc5)c4c3)cc2)CC1 [Compound 7k, 5-(5-(4-((4-Methylpiperazin-1-yl)methyl)phenyl)-1H-pyrrolo[2,3-b]pyridin-3-yl)pyrimidin-2-amine] | 48.3 | 16.5 | 6.50 | 71 | 71 | 69 | 70.8 | 71.64 | 75.32 |  |
| Cc1cc(-c2c[nH]c3ncc(-c4ccc(CN5CCN(C)CC5)cc4)cc23)cnc1N [Compound 7l, 3-Methyl-5-(5-(4-((4-methylpiperazin-1-yl)methyl)phenyl)-1H-pyrrolo[2,3-b]pyridin-3-yl)pyridin-2-amine] | 27 | 5.45 | 6.75 | 106 | 106 | 53.2 | 52.4 | 58.50 | 57.04 |  |
| CN1CCN(Cc2ccc(-c3cnc4[nH]cc(-c5ccc(N)nc5)c4c3)cc2)CC1 [Compound 7m, 5-(5-(4-((4-Methylpiperazin-1-yl)methyl)phenyl)-1H-pyrrolo[2,3-b]pyridin-3-yl)pyridin-2-amine] | 38.4 | 10.8 | 6.67 | 76.1 | 76.1 | 96.7 | 96.3 | 67.62 | 67.85 |  |
| CN1CCN(Cc2ccc(-c3cnc4[nH]cc(-c5ccc(C#N)cc5)c4c3)cc2)CC1 [Compound 7o, 4-(5-(4-((4-Methylpiperazin-1-yl)methyl)phenyl)-1H-pyrrolo[2,3-b]pyridin-3-yl)benzonitrile] | 58.9 | 29.3 | 6.11 | 49.7 | 68.6 | 93.4 | 90.7 | 90.12 | 92.65 |  |
